Columns and labels:
AmtB–GlnK complex = biological target: T1, AmtB–GlnK complex (Escherichia coli, UniProt P69681); experiment: Native MS lipid titration, lipid binding to AmtB–GlnK (equilibrium-coupled binding model); conditions: 50 µM ADP, 298 K
T1 construct: pelB signal peptide (N, cleaved yes); 10x His-tag (N, cleaved yes); made in house; host or cells: AmtB: Escherichia coli C41(DE3), pET15b; stGlnK: Escherichia coli ArcticExpress (DE3) RIL, pET28b
Method: (§1) A stock of ADP was prepared by dissolving the ammonium salt form of ADP in water followed by adjusting the pH with ammonium hydroxide to 7.0. Serial dilutions into MS buffer (200 mM ammonium acetate, 0.5% C8E4, and pH adjusted to 7.4 with ammonium hydroxide) supplemented with 5 mM BME was performed to prepare ADP at certain concentrations. Phospholipids were prepared as previously described. In brief, stock solutions of each phospholipid were resuspended in chloroform, aliqouted, and chloroform was removed by a steady stream on nitrogen gas. Lipid films were placed under vacuum overnight to prepare to resuspend in MS buffer supplemented with 5 mM 2-mercaptoethanol. Phospholipid concentration was determined by phosphorus analysis.

AmtB–GlnK interaction = biological target: T2, AmtB–GlnK interaction (Escherichia coli, UniProt P69681); experiment: Native MS lipid titration, GlnK binding to apo or lipid-bound AmtB; coupling factors (allosteric modulation); conditions: for Kd: 50 µM ADP, 298 K; for Coupling factor a1: first bound lipid; for Coupling factor a2: second bound lipid; for Coupling factor a3: third bound lipid; for allosteric modulation of AmtB–GlnK (from coupling factors) / effect of lipid-binding events on K D,ALnG: result in words; for increase in the coupling factor per lipid-binding event: linear fit to the coupling factors as a function of bound lipid
T2 construct: pelB signal peptide (N, cleaved yes); 10x His-tag (N, cleaved yes); made in house; host or cells: AmtB: Escherichia coli C41(DE3), pET15b; stGlnK: Escherichia coli ArcticExpress (DE3) RIL, pET28b
T2 sequence (P0AC55 whole entry Y51F): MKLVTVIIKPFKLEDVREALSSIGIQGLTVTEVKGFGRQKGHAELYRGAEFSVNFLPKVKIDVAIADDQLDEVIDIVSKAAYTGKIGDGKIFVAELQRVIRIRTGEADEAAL
T2 sequence (P69681 23-428): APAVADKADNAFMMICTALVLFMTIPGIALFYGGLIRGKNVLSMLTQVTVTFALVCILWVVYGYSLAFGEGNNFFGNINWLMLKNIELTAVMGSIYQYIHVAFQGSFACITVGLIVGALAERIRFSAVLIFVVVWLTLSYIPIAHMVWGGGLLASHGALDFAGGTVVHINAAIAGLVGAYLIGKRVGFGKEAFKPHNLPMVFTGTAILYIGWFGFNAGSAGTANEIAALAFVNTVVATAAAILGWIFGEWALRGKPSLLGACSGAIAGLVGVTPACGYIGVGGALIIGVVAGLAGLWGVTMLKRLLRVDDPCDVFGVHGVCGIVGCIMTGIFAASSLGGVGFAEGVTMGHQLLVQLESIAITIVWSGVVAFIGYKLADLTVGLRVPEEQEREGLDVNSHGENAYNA
Method: as §1

AmtB = biological target: T3, AmtB (Escherichia coli, UniProt P69681); experiment: Native MS lipid titration, lipid binding to AmtB (equilibrium-coupled binding model); conditions: 50 µM ADP, 298 K
T3 construct: pelB signal peptide (N, cleaved yes); 10x His-tag (N, cleaved yes); made in house; host or cells: Escherichia coli C41(DE3), pET15b
T3 sequence (P69681 23-428): as above
Method: as §1

[1] = KD,AGL1, first lipid binding to AmtB–GlnK
[2] = KD,AGL2, second lipid binding to AmtB–GlnK
[3] = KD,AGL3, third lipid binding to AmtB–GlnK
[4] = KD,AG, GlnK binding apo AmtB, from global fit of the titration with the named lipid
[5] = KD,AL2G, GlnK binding AmtB bound to 2 lipids
[6] = KD,AL3G, GlnK binding AmtB bound to 3 lipids
[7] = KD,ALG, GlnK binding AmtB bound to 1 lipid
[8] = KD,AL1, first lipid binding to AmtB
[9] = KD,AL2, second lipid binding to AmtB
[10] = KD,AL3, third lipid binding to AmtB

T1 sequence (P0AC55 whole entry Y51F): as the sequence (P0AC55 whole entry Y51F) above
T1 sequence (P69681 23-428): as the sequence (P69681 23-428) above

Structure (SMILES)	Kd (AmtB–GlnK complex; [1])	Kd (AmtB–GlnK complex; [2])	Kd (AmtB–GlnK complex; [3])	Kd (AmtB–GlnK interaction; [4])	Kd (AmtB–GlnK interaction; [5])	Kd (AmtB–GlnK interaction; [6])	Kd (AmtB–GlnK interaction; [7])	Coupling factor a1 (AmtB–GlnK interaction)	Coupling factor a2 (AmtB–GlnK interaction)	Coupling factor a3 (AmtB–GlnK interaction)	Kd (AmtB; [8])	Kd (AmtB; [9])	Kd (AmtB; [10])	allosteric modulation of AmtB–GlnK (from coupling factors) (AmtB–GlnK interaction)	effect of lipid-binding events on K D,ALnG (AmtB–GlnK interaction)	increase in the coupling factor per lipid-binding event (AmtB–GlnK interaction)
CCCCCCCCCCCC(=O)OC[C@H](COP(=O)(O)OCC(O)CO)OC(=O)CCCCCCCCCCC (some centres unmarked) [DLPG]	17.1 ± 1.96 µM	28.6 ± 3.98 µM	29.1 ± 2.27 µM	0.522 ± 0.0258 µM	0.313 ± 0.0435 µM	0.271 ± 0.0539 µM	0.401 ± 0.0148 µM	1.30 ± 0.04	1.35 ± 0.26	1.19 ± 0.15	22.5 ± 3.23 µM	39.1 ± 9.25 µM	34.03 ± 0.15 µM	–	–	–
CCCCCCCCCCCCCC(=O)OC[C@H](COP(=O)(O)OCC(O)CO)OC(=O)CCCCCCCCCCCCC (some centres unmarked) [DMPG]	6.92 ± 0.33 µM	14.1 ± 0.35 µM	19.6 ± 0.33 µM	0.551 ± 0.0134 µM	0.543 ± 0.0387 µM	0.523 ± 0.0284 µM	0.561 ± 0.0235 µM	0.99 ± 0.05	1.04 ± 0.04	1.04 ± 0.02	6.78 ± 0.19 µM	14.6 ± 1.2 µM	20.27 ± 0.12 µM	neutral allosteric modulation	–	–
CCCCCCCC/C=C\CCCCCCCC(=O)OC[C@H](COP(=O)(O)OCCN)OC(=O)CCCCCCC/C=C\CCCCCCCC [DOPE (cis)]	12.3 ± 0.39 µM	27.6 ± 1.09 µM	32.9 ± 2.11 µM	0.517 ± 0.0504 µM	0.315 ± 0.0269 µM	0.206 ± 0.0621 µM	0.421 ± 0.0375 µM	1.23 ± 0.02	1.34 ± 0.10	1.71 ± 0.31	15.1 ± 0.63 µM	36.9 ± 2.85 µM	57.6 ± 13.3 µM	–	–	–
CCCCCCCC/C=C/CCCCCCCC(=O)OC[C@H](COP(=O)(O)OCCN)OC(=O)CCCCCCC/C=C/CCCCCCCC [DOPE (trans)]	19 ± 0.42 µM	46 µM	–	0.556 ± 0.0327 µM	0.121 ± 0.0256 µM	–	0.356 ± 0.0141 µM	1.57 ± 0.14	3.29 ± 0.82	5.28 ± 1.82	29.7 ± 2.18 µM	159 ± 57.3 µM	–	greater positive allosteric modulation	–	–
CCCCCCCCCCCCCCCC(=O)OC[C@H](COP(=O)(O)OCC(O)CO)OC(=O)CCCCCCCCCCCCCCC (some centres unmarked) [DPPG]	14.8 ± 0.64 µM	31.7 ± 1.89 µM	53.4 ± 16.6 µM	0.521 ± 0.0158 µM	0.23 ± 0.0559 µM	0.164 ± 0.0721 µM	0.424 ± 0.0361 µM	1.25 ± 0.10	1.98 ± 0.32	1.66 ± 0.33	18.5 ± 1.85 µM	63.8 ± 13.2 µM	99.8 ± 45.3 µM	–	–	–
CCCCCCCC/C=C\CCCCCCCC(=O)O[C@H](COC(=O)CCCCCCCCCCCCCCC)COP(=O)(O)O [POPA]	10 ± 0.31 µM	19.8 ± 0.58 µM	26.2 ± 2.19 µM	0.517 ± 0.0463 µM	0.707 ± 0.0945 µM	0.75 ± 0.0992 µM	0.644 ± 0.0735 µM	0.81 ± 0.02	0.92 ± 0.04	0.94 ± 0.04	8.11 ± 0.41 µM	18.1 ± 1.18 µM	24.7 ± 2.44 µM	slight negative allosteric modulation	each binding event weakening the molecular interaction between AmtB and GlnK	–
CCCCCCCC/C=C\CCCCCCCC(=O)O[C@H](COC(=O)CCCCCCCCCCCCCCC)COP(=O)([O-])OCC[N+](C)(C)C [POPC]	18.9 ± 1.36 µM	40.3 ± 3.92 µM	59.5 ± 17.9 µM	0.486 ± 0.0325 µM	0.192 ± 0.0112 µM	–	0.345 ± 0.0822 µM	1.52 ± 0.23	1.76 ± 0.31	2.50 ± 0.80	29.2 ± 5.99 µM	68.3 ± 4.81 µM	104 ± 7.56 µM	–	decrease in K D,ALnG with each consecutive binding event	–
CCCCCCCC/C=C\CCCCCCCC(=O)O[C@H](COC(=O)CCCCCCCCCCCCCCC)COP(=O)(O)OCCN [POPE]	16.3 ± 0.4 µM	33.6 ± 1.24 µM	47.7 ± 7.02 µM	0.504 ± 0.0616 µM	0.245 ± 0.0372 µM	0.137 ± 0.0482 µM	0.391 ± 0.0593 µM	1.30 ± 0.04	1.63 ± 0.24	2.04 ± 0.37	21.1 ± 0.27 µM	55.3 ± 9.22 µM	96.2 ± 27 µM	positive allosteric modulation	decrease in K D,ALnG with each consecutive binding event	0.4
CCCCCCCC/C=C\CCCCCCCC(=O)O[C@H](COC(=O)CCCCCCCCCCCCCCC)COP(=O)(O)OCC(O)CO (some centres unmarked) [POPG]	12.04 ± 0.06 µM	25.4 ± 1.11 µM	34.3 ± 3.4 µM	0.54 ± 0.0267 µM	0.396 ± 0.0754 µM	0.313 ± 0.162 µM	0.485 ± 0.0356 µM	1.12 ± 0.06	1.30 ± 0.21	1.74 ± 0.46	13.5 ± 0.73 µM	33.3 ± 6.39 µM	56.7 ± 11.8 µM	positive allosteric modulation	decrease in K D,ALnG with each consecutive binding event	0.3
CCCCCCCC/C=C\CCCCCCCC(=O)O[C@H](COC(=O)CCCCCCCCCCCCCCC)COP(=O)(O)OC[C@H](N)C(=O)O [POPS]	9.18 ± 0.6 µM	19.9 ± 0.36 µM	26.7 ± 1.82 µM	0.499 ± 0.0347 µM	0.405 ± 0.0395 µM	0.363 ± 0.0372 µM	0.446 ± 0.0644 µM	1.15 ± 0.09	1.09 ± 0.08	1.13 ± 0.10	10.5 ± 0.97 µM	21.8 ± 1.97 µM	30.4 ± 4.97 µM	neutral allosteric modulation	little effect on K D,ALnG	–
CCCCCCCC/C=C\CCCCCCCC(=O)O[C@H](COC(=O)CCCCCCCCCCCCCCCCC)COP(=O)(O)OCCN [SOPE]	14.5 ± 1.28 µM	2.85 ± 2.32 µM	45.2 ± 7.56 µM	0.528 ± 0.0448 µM	0.321 ± 0.0944 µM	0.215 ± 0.0607 µM	0.482 ± 0.0919 µM	1.16 ± 0.19	1.60 ± 0.19	1.57 ± 0.25	16.4 ± 1.39 µM	46.6 ± 9.46 µM	73.6 ± 22 µM	–	–	–
